Patent US20030089472A1, “Laccase activity enhancers for pulp bleaching” (priority 2001, published 2003)

Tested on: laccase (NS51003, Novozymes A/S, Denmark)
Experiment: Delignification of a softwood Kraft pulp using a laccase-mediator system (change in Kappa number, TAPPI T236 cm-85)
Format: biochemical
Settings: for Kappa # (Mediator): pH 5.5
Experimental: Delignification of a Softwood Kraft Pulp Using a Laccase-Mediator System in the Presence of a Mediator
In the following example, a softwood Kraft pulp was delignified using a laccase-mediator system. The Kraft process is well known to those skilled in the art and is described, for example, by Swen A. Rydholm in “Pulping Process”, Interscience Publishers, New York, N.Y. (1965), p. 576.
A softwood Kraft pulp, Kappa number 31.0, was treated with a laccase (NS51003, Novozymes A/S, Denmark) under the following conditions:
The dried pulp was added to 80 ml of 50 mM phosphate, pH 5.5, and disintegrated in a blender. The pulp was then transferred to a 500 ml conical flask, and the blender was washed with 20 ml of the same buffer. The washed buffer and the pulp were combined. The mediator was added at 1-4% (w/w, based on the dry pulp) (Dosage) followed by the addition of the laccase. The pH of the pulp mixture was adjusted to 5.5 if needed. The flask was covered with an aluminum foil with holes punched through and incubated at 50° C. for 16 hrs on a rotary shaker at 200 rpm.
After the enzymatic treatment, the pulp mixture was filtered through a Buchner funnel and the pulp was washed with water. The pulp from the control experiment was treated at the same pH and temperature as described above in the absence of mediators.
The washed pulp was then treated with an alkaline solution under the following conditions:
The filtered pulp was repulped in the alkaline solution and incubated at 70° C. for 3 hrs. The pH of the pulp mixture should be between 11.7-12.00 during the entire treatment. After the treatment, the pulp mixture was filtered through a Buchner funnel, and the pulp was washed with water extensively, and then dried in a hood overnight.
The delignification of the pulp was measured as the change in Kappa number according to TAPPI method T236 cm−85. Briefly, a known mass of paper pulp (containing lignin) was reacted with an excess of potassium permanganate in acid solution for a specified period of time to oxidize the lignin. After the reaction, the residual permanganate was determined by titration. The Kappa number was defined as the volume (ml) of 0.1N potassium permanganate consumed by 1 g of moisture-free pulp in 0.5N sulfuric acid after a ten minute reaction time at 25° C. under conditions such that one-half of the permanganate remained unreacted. A linear relationship with the lignin content of the pulp and the measurement of the Kappa number had already been done on samples as low as 300 mg of pulp.

SMILES	Δ Kappa #	Kappa # (Mediator)
C(=NCc1ccccc1)c1ccccc1 [N-Benzylidene-benzylamine]	−0.3	28.3
Oc1ccccc1 [Phenol]	−1.1	25.0
CN(C)C(=S)[S-].O.[Na+] [Sodium dimethyldithio carbonate hydrate]	−0.7	28.6
Cc1ccc2nc(-c3ccc(N=NNc4ccc(-c5nc6ccc(C)c(S(=O)(=O)[O-])c6s5)cc4)cc3)sc2c1S(=O)(=O)[O-].[Na+].[Na+] [Thiazol Yellow G]	−3.0	21.9
